Results as given in patent US20120295838A1, “Selective poly-substituted glycine antibiotics and related compositions” (priority 2008, published 2012).
In brackets after ≈: the same amount, converted by molar mass. Where two headings read alike, the source gives them in different places. Numbered stars: 1 amine (or outer) side, 2 acyl side, 3 side chain; on linkers, the order of the positions; unused ones are H or OH. Square brackets hold non-standard residues; d marks the D form. Ends that are not written are not given here. Peptide text beside a SMILES is read from it. Gly(N-CH2CH2-imidazol-4-yl) = O=C(O)CNCCc1c[nH]cn1; X1 = CC(C)[C@H](C)N(CC(=O)[*:2])[*:1]; Nspe = C[C@H](NCC(=O)O)c1ccccc1; Nphe = O=C(O)CNCc1ccccc1; Nlys = NCCCCNCC(=O)O

Columns and labels:
[1] = RP-HPLC solvent composition at elution as measure of molecular hydrophobicity; format: physicochemical; settings: for HPLC elution solvent: Table 1, percent acetonitrile in water, 0.1% (v/v) TFA at HPLC elution; for % ACN at RP-HPLC elution: Table 8, gradient 5 to 95% ACN over 45 min, 0.2 ml/min, average of three replicates
Excerpt: An initial set of 15 ampetoid analogs was synthesized to determine whether peptoids are affected by structural and sequence modifications in a manner consistent with AMP activities. The designs for ampetoids in this library were derived from two antibacterial and selective amphipathic dodecamers, 1 and 2. Peptoid 1 [H-(Nlys-Nspe-Nspe)4-NH2] is composed of 2/3 Nspe, the peptoid analog of phenylalanine, and 1/3 Mys, the peptoid analog of lysine (see FIG. 1 for the structures of representative peptoid monomers and corresponding N-substituents). Peptoid 2 [H-(Mys-Nssb-Nspe)4-NH2] contains 1/3 isoleucine-like Nssb monomers in place of Nspe. The variant sequences were designed to effect changes in chirality, length, hydrophobicity, charge, and amphipathicity. All of these compounds were tested for antibacterial activity against representative BSL1 Gram-negative (E. coli JM109) and Gram-positive (B. subtilis BR151) bacterial strains. As an initial measure of selectivity, the lytic activity of the peptoids was determined against human erythrocytes. Table 1 summarizes the sequences synthesized, the solvent composition at RP-HPLC elution as a relative measure of molecular hydrophobicity, and antibacterial and hemolytic activities.
Following synthesis, peptoid oligomers can be cleaved from the resin, simultaneously removing the tert-butoxycarbonyl (Boc) protecting group from Mys residues, by treatment with 10 ml 2,2,2-trifluoroacetic acid (TFA)/triisopropylsilane/H2O (95:2.5:2.5 by volume) for 30 min. The cleavage mixture is then diluted with 25 ml 50% aqueous acetonitrile, frozen, and lyophilized. Dilution and lyophilization is repeated twice more in order to remove excess TFA. Subsequent to cleavage, peptoids are each purified to >97% homogeneity by preparative scale reversed-phase HPLC using a Waters Prep LC 4000 system, with Waters 2487 dual-wavelength UV detection, and gradient elution (solvent A, 0.1 vol % trifluoroacetic acid (TFA) in water; solvent B, 0.1 vol % TFA in acetonitrile) through a Vydac (Hysperia, Calif.) 214TP101550 C4 peptide/protein column (10-15 μm, 300 Å, 5×25 cm). Following prep HPLC, peptoid purities and crude yields were determined from analytical scale HPLC, performed with a Waters 2695 Separations Module with a Waters 2487 dual-wavelength UV detector and gradient elution (solvent A, 0.1 vol % TFA in water; solvent B, 0.1 vol % TFA in acetonitrile) through a Vydac C4 214TP53 peptide/protein column (5 μm, 300 Å, 3.2×250 mm). The precise gradient employed for HPLC depended on the identity and hydrophobicity of the oligomer in question. All analytical HPLC was performed at 0.5 ml/min flow and 58° C. Preparative HPLC was performed at 50 ml/min flow and room temperature.
Compound synthesis and purification. Peptoids were synthesized using an ABI 433A peptide synthesizer (Applied Biosystems, Inc.) on Rink amide MBHA resin (Novabiochem, Inc.) using the submonomer approach^3. Briefly, bromoacetic acid, activated by diisopropylcarbodiimide was used to form a bromocetylated intermediate on the terminal amide group. Bromide was then substituted with the desired primary amine through SN2 displacement to build the peptoid chain. The amines used in peptoid synthesis include benzylamine, octadecylamine, (s)-(+)-2-amino-3-methylbutane, (s)-α-methylbenzylamine, (r)-(α-methylbenzylamine (all purchased from Sigma-Aldrich), and N-tert-butoxycarbonyl-1,4 diaminobutane (Mys) that was made using a published procedure^83. Resin-bound peptoids were then exposed to a mixture of trifluoroacetic acid (TFA): triisopropylsilane:water (95:2.5:2.5, v:v:v) for ten minutes to cleave peptoids from the solid phase. Peptoids were purified by reversed-phase HPLC (RP-HPLC) (Waters Corporation) using a C18 column and a linear acetonitrile/water gradient. A final purity greater than 97% as measured by analytical RP-HPLC (Waters Corporation) was achieved, and the identity of each molecule was checked using electrospray ionization mass spectrometry. […]

[2] = test system: Staphylococcus aureus NRS119; format: cell-based; settings: for Selectivity ratio (SR): Table 7B, 10% hemolytic dose divided by MIC, S. aureus NRS119
Description: (§1) Antibacterial assays. MICs were determined according to CLSI M7-A6 protocols in a 96-well microtiter plate. In test wells, 50 uL bacterial inoculum (5×10^5 CFU/ml) in Mueller-Hinton broth (MHB) was added to 50 μL peptoid solution in MHB (prepared by 1:2 serial dilutions). Positive controls contained 50 μL inoculum and 50 μL MHB without peptoid. […] MIC values reported were reproducible between three independent experimental replicates, each consisting of two parallel trials. Broad-spectrum antimicrobial susceptibility testing was performed against BSL2 pathogens by Nova Biologicals, Inc. (Conroe, Tex.).
(§2) Broad-spectrum antibacterial assays. MICs of compounds were determined by microdilution procedure in Mueller-Hinton broth (MHB) in accordance with CLSI M7-A6 protocols in a manner similar to that described for the screen antibacterial assays. Inoculated microtiter plates were incubated at 35° C. for 24 hours prior to the result being recorded. Four ATCC strains that were used as standards are recommended by CLSI: Pseudomonas aeruginosa ATCC 27853, Escherichia coli ATCC 25922, Staphylococcus aureus ATCC 29213 and Enterococcus faecalis ATCC 29212. Other strains from the ATCC collection include Proteus vulgaris ATCC 49132, Proteus mirabilis ATCC 35659, Klebsiella pneumoniae ATCC 33495, Enterobacter aerogenes ATCC 35029 and Serratia marcescens ATCC 13880. S. aureus NRS100 (COL) is a well characterized methicillian-resistant S. aureus (MRSA) strain. The strains S. aureus VAN1 and S. aureus VAN2, vancomycin-resistant MRSA strains that were isolated in Michigan and Pennsylvania, were the first vancomycin-resistant strains clinically isolated. S. aureus NRS 119 and S. aureus NRS 120 are linezolid-resistant isolates from the Network on Antimicrobial Resistance in S. aureus (NARSA) collection. E. faecalis 99 and E. faecium 106 are vancomycin-resistant enterococcal strains.

[3] = test system: Enterobacter aerogenes ATCC 35029; format: cell-based; settings: for Selectivity ratio (SR): Table 7B, 10% hemolytic dose divided by MIC
Description: as §1, §2

[4] = test system: Staphylococcus aureus NRS120; format: cell-based; settings: for Selectivity ratio (SR): Table 7B, 10% hemolytic dose divided by MIC, S. aureus NRS120
Description: as §1, §2

[5] = test system: Staphylococcus aureus ATCC 29213; format: cell-based; settings: for Selectivity ratio (SR): Table 7B, 10% hemolytic dose divided by MIC
Description: as §1, §2

[6] = test system: Staphylococcus aureus VAN2; format: cell-based; settings: for Selectivity ratio (SR): Table 7B, 10% hemolytic dose divided by MIC, S. aureus VAN2
Description: as §1, §2

[7] = test system: Escherichia coli ATCC 25922; format: cell-based; settings: for Selectivity ratio (SR): Table 7B, 10% hemolytic dose divided by MIC
Description: as §1, §2

| Compound | HPLC elution solvent [1] [%] | % ACN at RP-HPLC elution ([1]; C18 column) [% ACN] | Selectivity ratio (SR) [2] | Selectivity ratio (SR) ([3]; E. aerogenes ATCC 35029) | Selectivity ratio (SR) [4] | Selectivity ratio (SR) ([5]; S. aureus ATCC 29213) | Selectivity ratio (SR) [6] | Selectivity ratio (SR) ([7]; E. coli ATCC 25922) | further results |
| --- | --- | --- | --- | --- | --- | --- | --- | --- | --- |
| C[C@@H](c1ccccc1)N(CC(=O)N(CCc1cnc[nH]1)CC(=O)N(CCCCN)CC(=O)N(CC(=O)N(CC(=O)N(CCCCN)CC(=O)N(CC(=O)N(CCc1cnc[nH]1)CC(N)=O)[C@@H](C)c1ccccc1)[C@@H](C)c1ccccc1)[C@@H](C)c1ccccc1)C(=O)CN(CCCCN)C(=O)CN(C(=O)CN(C(=O)CNCCCCN)[C@@H](C)c1ccccc1)[C@@H](C)c1ccccc1 [1-Nhis6,12, H-(Nlys-Nspe-Nspe-Nlys-Nspe-Nhis)2-NH2] (H-[Nlys][Nspe][Nspe][Nlys][Nspe][Gly(N-CH2CH2-imidazol-4-yl)][Nlys][Nspe][Nspe][Nlys][Nspe][Gly(N-CH2CH2-imidazol-4-yl)]-NH2) | 37 | 51.4 | – | – | – | – | – | – | – |
| CC(C)[C@H](C)N(CC(=O)N(CC(=O)N(CCCCN)CC(=O)N(CC(=O)N(CC(=O)N(CCCCN)CC(=O)N(CC(=O)N(CC(=O)N(CCCCN)CC(=O)N(CC(=O)N(CC(N)=O)[C@@H](C)c1ccccc1)[C@@H](C)C(C)C)[C@@H](C)c1ccccc1)[C@@H](C)C(C)C)[C@@H](C)c1ccccc1)[C@@H](C)C(C)C)[C@@H](C)c1ccccc1)C(=O)CNCCCCN [1-Nsdp2,5,8,11, H-(Nlys-Nsdp-Nspe)4-NH2] (H-[Nlys][X1][Nspe][Nlys][X1][Nspe][Nlys][X1][Nspe][Nlys][X1][Nspe]-NH2) | – | – | 12 | 5.8 | 23 | 23 | 23 | 23 | MIC ([2]; NRS119): 16 µg/mL (≈ 9.51 µM); MIC ([3]; ATCC 35029): 32 µg/mL (≈ 19 µM); MIC ([4]; NRS120): 16 µg/mL (≈ 9.51 µM); MIC ([5]; ATCC 29213): 8 µg/mL (≈ 4.75 µM); MIC ([6]; VAN2): 8 µg/mL (≈ 4.75 µM); MIC ([7]; ATCC 25922): 8 µg/mL (≈ 4.75 µM) |
| NCCCCNCC(=O)N(CC(=O)N(CC(=O)N(CCCCN)CC(=O)N(CC(=O)N(CC(=O)N(CCCCN)CC(=O)N(CC(=O)N(CC(=O)N(CCCCN)CC(=O)N(CC(=O)N(CC(N)=O)Cc1ccccc1)Cc1ccccc1)Cc1ccccc1)Cc1ccccc1)Cc1ccccc1)Cc1ccccc1)Cc1ccccc1)Cc1ccccc1 [1achiral, H-(Nlys-Npm-Npm)4-NH2] (H-[Nlys][Nphe][Nphe][Nlys][Nphe][Nphe][Nlys][Nphe][Nphe][Nlys][Nphe][Nphe]-NH2) | – | 60.4 | 19 | 2.4 | 19 | 39 | 39 | 19 | – |
| GIGKFLKKAKKFGKAFVKILKK-NH2 [pexiganan, reference compound] | 38 | 50.2 | 2.8 | 5.7 | 2.8 | 5.7 | 23 | 23 | HPLC ELUTION ([1]; Table 2, percent acetonitrile in H2O, C18 column, 0.1% TFA, pH 1): 38%; HPLC elution (% ACN) ([1]; Table 5, average of three injections, linear 5%-95% acetonitrile/water (0.1% TFA) over 45 minutes, C18 column): 50.2 % ACN; MIC ([2]; Table 7A, S. aureus NRS119 (linezolid-resistant)): 64 µg/mL; MIC ([3]; Table 7A, E. aerogenes ATCC 35029): 32 µg/mL; MIC ([4]; Table 7A, S. aureus NRS120 (linezolid-resistant)): 64 µg/mL; MIC ([5]; Table 7A, S. aureus ATCC 29213): 32 µg/mL; MIC ([6]; Table 7A, S. aureus VAN2 (MRSA, vancomycin-resistant)): 8 µg/mL; MIC ([7]; Table 7A, E. coli ATCC 25922): 8 µg/mL |
